Holding throughout (type): cell-based
Test [1] has as its system T98G. Nature of the test: MTT cell viability assay, T98G glioma cells. The following applies: human glioma cell line T98G, five days exposure, mean of triplicate experiments, read-out: Mean IC50 ± SD, T98G. An excerpt: (§1) The synthesized THI analogs were screened for their efficacy against established human glioma cell lines using the MTT colorimetric assay. This assay measures cell viability by quantitating purple formazan crystal formation caused by the reduction of tetrazolium salts in metabolically active cells. The inventors performed a series of experiments to determine the best concentration range for each compound to generate a half-maximal inhibitory concentration (IC50). The IC50 value for each compound represents the mean of triplicate experiments. Primary astrocytes established from the cortices of normal mouse pups were used as the model system to represent the degree of toxicity that would be expected in normal astrocytes in the human brain. The glioma cells and normal astrocytes were exposed to escalating concentrations of each THI compound for five days and then subjected to the MTT assay. Cell viability data at each concentration was used to calculate IC50 values.
(Tetrazolium dyes change colour on reduction, which living cells bring about.)

The subject of test [2] is U87. Nature of the test: MTT cell viability assay, U87 glioma cells. The following applies: human glioma cell line U87, five days exposure, mean of triplicate experiments, read-out: Mean IC50 ± SD, U87.
Excerpt: as §1

The test system of test [3] is LN18. Nature of the test: MTT cell viability assay, LN18 glioma cells. The following applies: human glioma cell line LN18, five days exposure, mean of triplicate experiments, read-out: Mean IC50 ± SD, LN18.
Excerpt: as §1

In test [4] the test system is A172. Nature of the test: MTT cell viability assay, A172 glioma cells. The following applies: human glioma cell line A172, five days exposure, mean of triplicate experiments, read-out: Mean IC50 ± SD, A172.
Excerpt: as §1

Test [5] deals with Normal astrocytes. Nature of the test: MTT cell viability assay, normal primary astrocytes (toxicity model). The note with it: primary astrocyte cultures from normal mouse brains, five days exposure, mean of triplicate experiments, read-out: Mean IC50 ± SD, Normal astrocytes.
Excerpt: as §1

Structures are written as SMILES. Structures can show the parent of a compound that is named as a salt. Where two headings read alike, the source gives them in different places.

As a reminder, the IC50 is the concentration at which inhibition is half-maximal.

For the molecule `COc1cc2c(cc1OC)C(Cc1ccc(-c3cnccc3OC)cc1)NCC2` (stereo not shown) [EDL-291 (9)], the IC50 was determined as 59.5 ± 7.61 µM in test [1]; 66.5 ± 1.12 µM in test [2]; 37 µM in test [3]; 41.2 µM in test [4]; 51.1 ± 1.38 µM in test [5].
As to `COc1ccncc1-c1ccc(CC2NCCc3c(OC)ccc(OC)c32)cc1` (stereo not shown) [EDL-358 (11), 5,8-dimethoxy-1-(4-(4-methoxypyridin-3-yl)benzyl)-1,2,3,4-tetrahydroisoquinoline dihydrochloride], the IC50 in test [1] (120 h) was found to be 13.8 µM; in test [2] (U-87 MG, 120 h) it was 16.2 µM; in test [3] (LN-18, 120 h) it was 13.7 µM; in test [4] (A 172, 120 h) it was 8.25 µM; in test [5] (120 h) it was 24.6 ± 0.79 µM.
For `COc1ccncc1-c1ccc(CCC2NCCc3c(OC)ccc(OC)c32)cc1` (stereo not shown) [EDL-360 (12), 5,8-dimethoxy-1-(4-(4-methoxypyridin-3-yl)phenethyl)-1,2,3,4-tetrahydroisoquinoline dihydrochloride], the IC50 turned out to be 10.4 µM in test [1] (120 h); 8.4 µM in test [2] (U-87 MG, 120 h); 5.42 µM in test [3] (LN-18, 120 h); 5.6 µM in test [4] (A 172, 120 h); 19.7 ± 2.44 µM in test [5] (120 h).
In the same order, the values of `COc1ccncc1-c1ccc(CCCC2NCCc3c(OC)ccc(OC)c32)cc1` (stereo not shown) [EDL-361 (13), 5,8-dimethoxy-1-(3-(4-(4-methoxypyridin-3-yl)phenyl)propyl)-1,2,3,4-tetrahydroisoquinoline dihydrochloride] are 14.8 ± 0.68 µM, 10.5 µM, 11.7 ± 0.17 µM, 15.2 ± 0.98 µM and 11.9 ± 0.56 µM.
For the molecule `Cn1nnc2c(C(N)=O)ncn2c1=O` [TMZ, reference compound], the IC50 in test [1] was 571 ± 50.4 µM; in test [2], 49.1 ± 5.15 µM; in test [3] it was 392 ± 77.2 µM; in test [4], 65.3 ± 12 µM; in test [5], > 1000 µM.
